Laboratory results published in patent publication US10494368B2, “Pesticidally active tetracyclic derivatives with sulfur containing substituents” (Syngenta Participations AG, priority 2015, dated 2019).

Legend:
Type in all cases: in vivo
[1] = test system: Spodoptera littoralis (Egyptian Cotton Leaf Worm); test: Spodoptera littoralis, uptake by lettuce roots from agar; details: 144 h, test rate 12.5 ppm, compound absorbed by lettuce roots, 6 days after infestation, read-out: effect in at least one of the three categories (mortality, anti-feeding, or growth inhibition)
Description: Test compounds were applied by pipette from 10′000 ppm DMSO stock solutions into 24-well plates and mixed with agar. Lettuce seeds were placed onto the agar and the multi well plate was closed by another plate which contained also agar. After 7 days the compound was absorbed by the roots and the lettuce grew into the lid plate. The lettuce leaves were then cut off into the lid plate. Spodoptera eggs were pipetted through a plastic stencil onto a humid gel blotting paper and the lid plate was closed with it. The samples were assessed for mortality, anti-feedant effect and growth inhibition in comparison to untreated samples 6 days after infestation.
The following compounds gave an effect of at least 80% in at least one of the three categories (mortality, anti-feeding, or growth inhibition) at a test rate of 12.5 ppm: A3, A4, A5, A6, A8, A10, B3, B4, B5 and C2.

[2] = test system: Spodoptera littoralis (Egyptian Cotton Leaf Worm); test: Spodoptera littoralis on cotton leaf discs, spray; details: foliar, 72 h, application rate 200 ppm, L1 larvae on cotton leaf discs, 3 days after infestation
Method: Cotton leaf discs were placed onto agar in 24-well microtiter plates and sprayed with aqueous test solutions prepared from 10′000 ppm DMSO stock solutions. After drying the leaf discs were infested with five L1 larvae. The samples were assessed for mortality, anti-feeding effect, and growth inhibition in comparison to untreated samples 3 days after infestation. Control of Spodoptera littoralis by a test sample is given when at least one of the categories mortality, anti-feedant effect, and growth inhibition is higher than the untreated sample.

[3] = test system: Aedes aegypti (Yellow Fever Mosquito); test: Aedes aegypti adult contact test on dried deposits; details: application rate 200 ppm in ethanol, adult females, after 48 h and/or 24 h
Method: Test solutions, at an application rate of 200 ppm in ethanol, were applied to 12 well tissue culture plates. Once the deposits were dry, five, two to five day old adult female Aedes aegypti were added to each well, and sustained with a 10% sucrose solution in a cotton wool plug. Assessment of knockdown was made one hour after introduction, and mortality was assessed at 24 and 48 hours after introduction.
The following compounds gave at least 80% control of Aedes aegypti after 48 h and/or 24 h: […]

[4] = test system: Diabrotica Balteata (Corn Root Worm); test: Diabrotica balteata on maize sprouts, spray; details: 96 h, application rate 200 ppm, L2 larvae on maize sprouts, 4 days after infestation, read-out: effect in at least one of the two categories (mortality or growth inhibition)
Method: Maize sprouts placed onto an agar layer in 24-well microtiter plates were treated with aqueous test solutions prepared from 10′000 ppm DMSO stock solutions by spraying. After drying, the plates were infested with L2 larvae (6 to 10 per well). The samples were assessed for mortality and growth inhibition in comparison to untreated samples 4 days after infestation.
(§1) The following compounds gave an effect of at least 80% in at least one of the two categories (mortality or growth inhibition) at an application rate of 200 ppm: […]

[5] = test system: Myzus persicae (Green Peach Aphid); test: Myzus persicae intrinsic activity (sucrose solution, Parafilm); details: 120 h, test rate 12 ppm, 5 days after infestation
Method: Intrinsic activity Test compounds prepared from 10′000 ppm DMSO stock solutions were applied by pipette into 24-well microtiter plates and mixed with sucrose solution. The plates were closed with a stretched Parafilm. A plastic stencil with 24 holes was placed onto the plate and infested pea seedlings were placed directly on the Parafilm. The infested plate was closed with a gel blotting paper and another plastic stencil and then turned upside down. The samples were assessed for mortality 5 days after infestation.

[6] = test system: Euschistus heros (Neotropical Brown Stink Bug); test: Euschistus heros on soybean leaves, spray; details: 120 h, application rate 200 ppm, N2 nymphs on soybean leaves, 5 days after infestation, read-out: effect in at least one of the two categories (mortality or growth inhibition)
Method: Soybean leaves on agar in 24-well microtiter plates were sprayed with aqueous test solutions prepared from 10′000 ppm DMSO stock solutions. After drying the leaves were infested with N2 nymphs. The samples were assessed for mortality and growth inhibition in comparison to untreated samples 5 days after infestation.
as §1

[7] = test system: Plutella xylostella (Diamond Back Moth); test: Plutella xylostella on artificial diet; details: 120 h, application rate 200 ppm, L2 larvae on artificial diet, 5 days after infestation, read-out: effect in at least one of the two categories (mortality or growth inhibition)
Method: 24-well microtiter plates with artificial diet were treated with aqueous test solutions prepared from 10′000 ppm DMSO stock solutions by pipetting. After drying, the plates were infested with L2 larvae (10 to 15 per well). The samples were assessed for mortality and growth inhibition in comparison to untreated samples 5 days after infestation.
as §1

[8] = test system: Bemisia tabaci (Cotton White Fly); test: Bemisia tabaci feeding/contact activity on cotton leaf discs; details: foliar, 144 h, application rate 200 ppm, adult white flies on cotton leaf discs, 6 days after incubation
Method: Feeding/contact activity Cotton leaf discs were placed on agar in 24-well microtiter plates and sprayed with aqueous test solutions prepared from 10′000 ppm DMSO stock solutions. After drying the leaf discs were infested with adult white flies. The samples were checked for mortality 6 days after incubation.

[9] = test system: Myzus persicae (Green Peach Aphid); test: Myzus persicae feeding/contact activity on sunflower leaf discs; details: foliar, 144 h, application rate 200 ppm, aphid population of mixed ages on sunflower leaf discs, 6 days after infestation
Method: Feeding/Contact activity Sunflower leaf discs were placed onto agar in a 24-well microtiter plate and sprayed with aqueous test solutions prepared from 10′000 ppm DMSO stock solutions. After drying, the leaf discs were infested with an aphid population of mixed ages. The samples were assessed for mortality 6 days after infestation.

[10] = test system: Tetranychus urticae (Two-Spotted Spider Mite); test: Tetranychus urticae feeding/contact activity on bean leaf discs; details: foliar, 192 h
Method: Feeding/contact activity Bean leaf discs on agar in 24-well microtiter plates were sprayed with aqueous test solutions prepared from 10′000 ppm DMSO stock solutions. After drying the leaf discs were infested with a mite population of mixed ages. The samples were assessed for mortality on mixed population (mobile stages) 8 days after infestation.

CCSc1c(-c2nc3cc(C(F)(F)F)ncc3n2C)sc2cc(C(F)(F)F)ccc12 [Compound B3, 2-[3-ethylsulfanyl-6-(trifluoromethyl)benzothiophen-2-yl]-3-methyl-6-(trifluoromethyl)imidazo[4,5-c]pyridine]
≥ 80%: percent effect (mortality, anti-feeding or growth inhibition) at 12.5 ppm [1] | percent control (mortality, anti-feedant effect or growth inhibition) at 200 ppm [2] | pest or weed control at 200 ppm [3] | percent effect (mortality or growth inhibition) at 200 ppm [4] | mortality at 12 ppm [5] | percent effect (mortality or growth inhibition) at 200 ppm [6] | percent effect (mortality or growth inhibition) at 200 ppm [7]

CCS(=O)(=O)c1c(-c2nc3cc(C(F)(F)F)cnc3n2C)sc2cc(Br)ccc12 [Compound A8, 2-(6-bromo-3-ethylsulfonyl-benzothiophen-2-yl)-3-methyl-6-(trifluoromethyl)imidazo[4,5-b]pyridine]
≥ 80%: percent effect (mortality, anti-feeding or growth inhibition) at 12.5 ppm [1] | percent control (mortality, anti-feedant effect or growth inhibition) at 200 ppm [2] | mortality at 200 ppm [8] | mortality at 200 ppm [9] | pest or weed control at 200 ppm [3] | percent effect (mortality or growth inhibition) at 200 ppm [4] | percent effect (mortality or growth inhibition) at 200 ppm [6] | percent effect (mortality or growth inhibition) at 200 ppm [7]

CCSc1c(-c2nc3cc(SC(F)(F)F)cnc3n2C)sc2cc(Br)ccc12 [Compound A3, 2-(6-bromo-3-ethylsulfanyl-benzothiophen-2-yl)-3-methyl-6-(trifluoromethylsulfanyl)imidazo[4,5-b]pyridine]
≥ 80%: percent effect (mortality, anti-feeding or growth inhibition) at 12.5 ppm [1] | percent control (mortality, anti-feedant effect or growth inhibition) at 200 ppm [2] | pest or weed control at 200 ppm [3] | mortality at 200 ppm [10] | percent effect (mortality or growth inhibition) at 200 ppm [4] | percent effect (mortality or growth inhibition) at 200 ppm [6] | percent effect (mortality or growth inhibition) at 200 ppm [7]

CCSc1c(-c2nc3cnc(C(F)(F)F)cc3n2C)sc2ccccc12 [Compound B1, 2-(3-ethylsulfanylbenzothiophen-2-yl)-1-methyl-6-(trifluoromethyl)imidazo[4,5-c]pyridine]
≥ 80%: mortality at 200 ppm [9] | percent effect (mortality or growth inhibition) at 200 ppm [4] | mortality at 12 ppm [5] | percent effect (mortality or growth inhibition) at 200 ppm [7]
